From patent publication US7163960B2, “Treatment and prevention of inflammatory disorders” (Monsanto Technology L.L.C., priority 2002, dated 2007)
“Also recorded” adds a separate entry of the source. Marks after values point to notes of the source that are not given here.

Columns and labels:
Assay type in all cases: in vivo, human
IL-1β = IL-1β synthesis in LPS-treated whole blood; conditions: mean ± SD
Experimental: (§1) Following a 3-week run-in period, subjects ingested either ALA, SDA, EPA supplied as ethyl esters in capsules. Intakes were 0.75 g/day for 3 weeks followed by 1.5 g/day for the subsequent 3 weeks.
(§2) Blood (4 mL) was added to heparinised tubes, bacterial lipopolysaccharide (LPS) was added (200 ng/mL), and the mixture was incubated at 37° C., 5% CO2, for 24 h. Plasma was collected and assayed for prostaglandin E2 (PGE2) by radioimmunoassay (RIA), interleukin-1β (IL-1β) and tumor necrosis factor-α (TNF-α) by ELISA, as described in Mantzioris et al., supra.

prostaglandin E2 (PGE2) = test: PGE2 synthesis in LPS-stimulated whole blood; conditions: for PGE2 synthesis in LPS-stimulated whole blood: mean ± SD
Experimental: as §1, §2

[1] = Fatty acid analysis of blood cell phospholipids and plasma lipid fractions after ingestion of test fatty acids; conditions: for DHA (% of total fatty acids), Erythrocyte phospholipid / DHA (% of total fatty acids), Plasma phospholipid / DPA (% of total fatty acids), Erythrocyte phospholipid / DPA (% of total fatty acids), Plasma phospholipid / EPA (% of total fatty acids), Monocyte / EPA (% of total fatty acids), Plasma CE / EPA (% of total fatty acids), Plasma Phospholipid / EPA (% of total fatty acids), Plasma TG / EPA (% of total fatty acids), Platelet / EPA (% of total fatty acids), Red Blood: both, human, in vivo
From the text: 45 males and post-menopausal female—19–65 years of age, normolipidemic, and with a body mass index (BMI) in the range 20 to 30, were recruited. Exclusion criteria included bleeding disorders, hypertension, inflammatory disorders, active gastrointestinal diseases, chronic use of low dose aspirin, consumption of restaurant or takeaway evening meals more than twice per week, use of dietary supplements rich in n-3 or n-6 fatty acids, habitual consumption of more than 1 fish meal per month, and plasma phospholipid EPA+DHA levels>7.9% of total fatty acids (level achieved in the study group was 4.9±1.0% of total fatty acids).
as §1
At each visit, 36 mL of blood was taken by venepuncture after an overnight fast. Blood was aliquoted into various tubes for the following procedures.
Blood (20 mL) was added to tubes containing 4 mL 4.5% EDTA in water and 4 mL—6% dextran in normal saline, pH 7.0. Erythrocytes were allowed to sediment under gravity at 37° C. for 30 min. The leucocyte-rich plasma was layered onto LYMPHOPREP, density 1.077 (Nycomed Pharma, Oslo) and centrifuged at 110 g for 10 min to separate leucocytes from the platelets, which were removed. The gradient was further centrifuged at 200 g for 20 min to separate the neutrophils from mononuclear cells, which were removed.
Samples were processed for fatty acid analysis as described in Mantzioris et al., Am. J. Clin. Nutr., 72:42–8 (2000). Plasma, washed platelet and mononuclear cell pellets were stored at −80° C. Erythrocyte pellets were treated fresh with chloroform:isopropanol (2:1) and the lipid extracts stored at 4° C. Plasma, platelet and mononuclear cell pellets were extracted with chloroform:methanol. The cellular and plasma lipid extracts were fractionated by thin-layer chromatography. For the cellular extracts, the phospholipid fraction was retained and for the plasma extracts, the phospholipid, cholesterol ester, and triglyceride fractions were retained. These were transesterified by methanolysis (1% H2SO4 in methanol at 70° C. for 3 h). Fatty acid methyl esters were separated and quantified with a HEWLETT-PACKARD 6890 gas chromatograph equipped with a 50 m capillary column coated with BPX-70 (0.25 μm film thickness; SGE Pty Ltd, Victoria, Australia) (see Mantzioris et al., supra). Fatty acid standards were obtained from NuChek Prep Inc. (Elysian, Minn.) and included stearidonic acid obtained from Sigma Aldrich Pty Ltd. (Castle Hill, NSW, Australia). All organic solvents contained butylated hydroxy anisole (0.005%) as an antioxidant.

TNF-α = TNF-α synthesis in LPS-treated whole blood; conditions: mean ± SD
Experimental: as §1, §2

[2] = Week 3 (after 0.75 g/day for 3 weeks)
[3] = Week 6 (after 1.5 g/day for 3 weeks)
[4] = Week −3 (start of run-in, before dosing)

## CC/C=C\C/C=C\C/C=C\C/C=C\C/C=C\CCCC(=O)O [EPA, eicosapentaenoic acid]
IL-1β; Week 0 (baseline)
  IL-1β synthesis in LPS-treated whole blood: 92.0 ± 25.4^a ng/mL
IL-1β; [2]
  IL-1β synthesis in LPS-treated whole blood: 75.3 ± 27.6^b ng/mL
IL-1β; [3]
  IL-1β synthesis in LPS-treated whole blood: 73.5 ± 16.4^b ng/mL
IL-1β; [4]
  IL-1β synthesis in LPS-treated whole blood: 93.1 ± 26.8^a1,b ng/mL
Prostaglandin E2 (PGE2); Week 0 (baseline)
  PGE2 synthesis in LPS-stimulated whole blood: 4.21 ± 1.59 ng/mL
Prostaglandin E2 (PGE2); [2]
  PGE2 synthesis in LPS-stimulated whole blood: 5.05 ± 2.16 ng/mL
Prostaglandin E2 (PGE2); [3]
  PGE2 synthesis in LPS-stimulated whole blood: 4.46 ± 1.47 ng/mL
Prostaglandin E2 (PGE2); [4]
  PGE2 synthesis in LPS-stimulated whole blood: 3.78 ± 1.95^1,2 ng/mL
Prostaglandin E2 (PGE2); overall, either dose
  Effect on LPS-stimulated PGE2 synthesis: no effect
[1]; 0.75 g/day
  Effect on DPA concentration in the phospholipid fractions of erythrocytes and plasma: significantly increased
[1]; 0.75 g/day (weeks 0 to 3)
  Effect on EPA concentration in the phospholipid fractions of erythrocytes and plasma: significantly increased
[1]; 1.5 g/day
  Effect on DPA concentration in the phospholipid fractions of erythrocytes and plasma: significantly increased; also recorded: elevated
[1]; 1.5 g/day (weeks 3 to 6)
  Effect on EPA concentration in the phospholipid fractions of erythrocytes and plasma: significantly increased; also recorded: elevated
[1]; 0 week
  DHA (% of total fatty acids), Erythrocyte phospholipid: 4.62 ± 0.69^b % of total fatty acids
[1]; 0 weeks
  DHA (% of total fatty acids), Plasma phospholipid: 3.75 ± 0.77^ab % of total fatty acids
  DPA (% of total fatty acids), Erythrocyte phospholipid: 2.81 ± 0.24^a % of total fatty acids
  DPA (% of total fatty acids), Plasma phospholipid: 1.34 ± 0.22^a % of total fatty acids
  EPA (% of total fatty acids), Monocyte: 0.52 (0.11)a % of total fatty acids
  EPA (% of total fatty acids), Plasma CE: 1.02 (0.20)a % of total fatty acids
  EPA (% of total fatty acids), Plasma Phospholipid: 1.04 (0.23)a % of total fatty acids
  EPA (% of total fatty acids), Plasma TG: 0.27 (0.09)a % of total fatty acids
  EPA (% of total fatty acids), Platelet: 0.45 (0.09)a % of total fatty acids
  EPA (% of total fatty acids), Red Blood: 0.81 (0.14)^a % of total fatty acids
[1]; 3 weeks
  EPA (% of total fatty acids), Monocyte: 1.38 (0.35)b1 % of total fatty acids
  EPA (% of total fatty acids), Plasma CE: 2.95 (0.74)b1 % of total fatty acids
  EPA (% of total fatty acids), Plasma Phospholipid: 2.71 (0.71)b1 % of total fatty acids
  EPA (% of total fatty acids), Plasma TG: 0.73 (0.20)b1 % of total fatty acids
  EPA (% of total fatty acids), Platelet: 1.08 (0.26)b1 % of total fatty acids
  EPA (% of total fatty acids), Red Blood: 1.60 (0.31)^b1 % of total fatty acids
[1]; 6 weeks
  EPA (% of total fatty acids), Monocyte: 2.25 (0.74)c1 % of total fatty acids
  EPA (% of total fatty acids), Plasma CE: 4.53 (1.31)c1 % of total fatty acids
  EPA (% of total fatty acids), Plasma Phospholipid: 4.48 (1.35)c1 % of total fatty acids
  EPA (% of total fatty acids), Plasma TG: 1.23 (0.47)c1 % of total fatty acids
  EPA (% of total fatty acids), Platelet: 1.68 (0.43)c1 % of total fatty acids
  EPA (% of total fatty acids), Red Blood: 2.56 (0.65)^c1 % of total fatty acids
[1]; -3 week
  DHA (% of total fatty acids), Erythrocyte phospholipid: 5.02 ± 0.89^a1,2 % of total fatty acids
[1]; -3 weeks
  DHA (% of total fatty acids), Plasma phospholipid: 3.97 ± 1.06^a % of total fatty acids
  DPA (% of total fatty acids), Erythrocyte phospholipid: 2.92 ± 0.45^a1,2 % of total fatty acids
  DPA (% of total fatty acids), Plasma phospholipid: 1.31 ± 0.29^a % of total fatty acids
  EPA (% of total fatty acids), Monocyte: 0.66 (0.32)^a % of total fatty acids
  EPA (% of total fatty acids), Plasma CE: 1.03 (0.34)^a % of total fatty acids
  EPA (% of total fatty acids), Plasma Phospholipid: 1.10 (0.40)^a % of total fatty acids
  EPA (% of total fatty acids), Plasma TG: 0.31 (0.15)^a % of total fatty acids
  EPA (% of total fatty acids), Platelet: 0.44 (0.12)^a % of total fatty acids
  EPA (% of total fatty acids), Red Blood: 0.85 (0.16)^a % of total fatty acids
[1]; erythrocytes and plasma phospholipids, 1.5 g/day
  Effect on tissue levels of DHA (FIG. 1): decreased
[1]; higher dose (1.5 g/day)
  Change in erythrocyte DHA: slight, but statistically significant decrease
TNF-α; Week 0 (baseline)
  TNF-α synthesis in LPS-treated whole blood: 38.9 ± 12.5^a ng/mL
TNF-α; [2]
  TNF-α synthesis in LPS-treated whole blood: 32.0 ± 11.8^ab ng/mL
TNF-α; [3]
  TNF-α synthesis in LPS-treated whole blood: 27.6 ± 10.6^b ng/mL
TNF-α; [4]
  TNF-α synthesis in LPS-treated whole blood: 36.6 ± 16.53^a1,2 ng/mL
